ChEMBL document CHEMBL1201862, “PubChem BioAssay data set” (2004)
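96-well plates; 48 h exposure; 5 concentrations. Endpoints by linear interpolation between flanking doses. Not reached: highest tested concentration assigned. The concentration for 50% growth inhibition is given as GI50.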 Activity calls are given as the source filed them. Cut-off read from the data, not from the text of the source: active = GI50 up to about 1.1 µM and inactive = higher.

Legend:
Assay in all cases: DTP human tumour cell line panel, 48 h
SK-MEL-5 = system: SK-MEL-5
IGROV-1 = system: IGROV-1
SF-295 = system: SF-295
U-251 = system: U-251
EKVX = system: EKVX
MOLT-4 = system: MOLT-4
HOP-62 = system: HOP-62
RXF 393 = system: RXF 393
DLD-1 = system: DLD-1
CCRF-CEM = system: CCRF-CEM
HOP-92 = system: HOP-92
SNB-19 = system: SNB-19
LXFL 529 = system: LXFL 529
786-0 = system: 786-0
COLO 205 = system: COLO 205
K562 = system: K562
DU-145 = system: DU-145
NCI/ADR-RES = system: NCI/ADR-RES
BT-549 = system: BT-549
MDA-MB-435 = system: MDA-MB-435

Structure (SMILES)	GI50 (SK-MEL-5)	GI50 (IGROV-1)	GI50 (SF-295)	GI50 (U-251)	GI50 (EKVX)	GI50 (MOLT-4)	GI50 (HOP-62)	GI50 (RXF 393)	GI50 (DLD-1)	GI50 (CCRF-CEM)	GI50 (HOP-92)	GI50 (SNB-19)	GI50 (LXFL 529)	GI50 (786-0)	GI50 (COLO 205)	GI50 (K562)	GI50 (DU-145)	GI50 (NCI/ADR-RES)	GI50 (BT-549)	GI50 (MDA-MB-435)
CCOC(=O)NC(=O)c1cn(CCCCCCCCCCC(=O)N2CCN(CCn3cc(C(=O)NC(=O)OCC)c(=O)[nH]c3=O)CC2)c(=O)[nH]c1=O	> 100 µM (inactive)	> 100 µM (inactive)	> 100 µM (inactive)	> 100 µM (inactive)	> 100 µM (inactive)	> 100 µM (inactive)	> 100 µM (inactive)	> 100 µM (inactive)	> 100 µM (inactive)	> 100 µM (inactive)	> 100 µM (inactive)	> 100 µM (inactive)	> 100 µM (inactive)	> 100 µM (inactive)	> 100 µM (inactive)	> 100 µM (inactive)				
O=S(=O)(O)C(F)(F)C(F)(F)C(F)(F)C(F)(F)F	> 100 µM (inactive)	> 100 µM (inactive)	> 100 µM (inactive)	> 100 µM (inactive)	> 100 µM (inactive)	> 100 µM (inactive)	> 100 µM (inactive)	> 100 µM (inactive)	> 100 µM (inactive)	> 100 µM (inactive)	9.51 µM (inactive)	> 100 µM (inactive)	> 100 µM (inactive)	> 100 µM (inactive)	> 100 µM (inactive)	> 100 µM (inactive)				
Cc1ccc(S(=O)(=O)OCCn2cnc3nc(NC(=O)c4ccccc4)[nH]c(=O)c32)cc1	> 100 µM (inactive)	> 100 µM (inactive)	> 100 µM (inactive)	> 100 µM (inactive)	> 100 µM (inactive)		> 100 µM (inactive)	> 100 µM (inactive)	> 100 µM (inactive)	> 100 µM (inactive)	> 100 µM (inactive)	> 100 µM (inactive)	94.6 µM (inactive)	> 100 µM (inactive)	> 100 µM (inactive)	> 100 µM (inactive)				
O=C1c2ccccc2C2C1N2C(=O)C(F)(F)F (stereo unspecified)	> 100 µM (inactive)	> 100 µM (inactive)	> 100 µM (inactive)	> 100 µM (inactive)	> 100 µM (inactive)	> 100 µM (inactive)	> 100 µM (inactive)	> 100 µM (inactive)	> 100 µM (inactive)	25.9 µM (inactive)	> 100 µM (inactive)	> 100 µM (inactive)	> 100 µM (inactive)	> 100 µM (inactive)	> 100 µM (inactive)	44.2 µM (inactive)				
CCOC(=O)C1=C(OC(OCC)C(CC)[Se]c2ccccc2)CCCC1 (stereo unspecified)	12.6 µM (inactive)	26.8 µM (inactive)	19.1 µM (inactive)	12.6 µM (inactive)	34.4 µM (inactive)	14.7 µM (inactive)	54.2 µM (inactive)	20.5 µM (inactive)	17.5 µM (inactive)	11.4 µM (inactive)	21.2 µM (inactive)	40.6 µM (inactive)	20.5 µM (inactive)	15.6 µM (inactive)	34.7 µM (inactive)	34.2 µM (inactive)				
CCOC(=O)C[C@@H](C)[C@]1(C(=O)OC)CCCC1=O	> 100 µM (inactive)	> 100 µM (inactive)	> 100 µM (inactive)	> 100 µM (inactive)	> 100 µM (inactive)	> 100 µM (inactive)	> 100 µM (inactive)	> 100 µM (inactive)	> 47.2 µM (inactive)	44.6 µM (inactive)	> 100 µM (inactive)	> 100 µM (inactive)	> 100 µM (inactive)	> 70.6 µM (inactive)	> 51.8 µM (inactive)	> 100 µM (inactive)				
CC(=O)O/N=C/c1ncccc1OC(C)=O	> 100 µM (inactive)	> 100 µM (inactive)	> 100 µM (inactive)	> 100 µM (inactive)	> 100 µM (inactive)	> 100 µM (inactive)	> 100 µM (inactive)	> 100 µM (inactive)	> 100 µM (inactive)	> 100 µM (inactive)	> 100 µM (inactive)	> 100 µM (inactive)	> 100 µM (inactive)	> 100 µM (inactive)	> 100 µM (inactive)	> 100 µM (inactive)				
COC(=O)[C@@H]1C(=O)O[C@@H](c2ccc(OC)c(OC)c2OC)[C@@H]1C(=O)OC.COC(=O)[C@H]1C(=O)O[C@@H](c2ccc(OC)c(OC)c2OC)[C@@H]1C(=O)OC	> 100 µM (inactive)	> 100 µM (inactive)	> 100 µM (inactive)	> 100 µM (inactive)	> 100 µM (inactive)	> 100 µM (inactive)	> 100 µM (inactive)	> 100 µM (inactive)	> 100 µM (inactive)	> 100 µM (inactive)	> 100 µM (inactive)	> 100 µM (inactive)	> 100 µM (inactive)	> 100 µM (inactive)	> 100 µM (inactive)	> 100 µM (inactive)				
c1ccc(SC(CCCCOC2CCCCO2)Sc2ccccc2)cc1 (stereo unspecified)	30.5 µM (inactive)	82.8 µM (inactive)	> 100 µM (inactive)	> 100 µM (inactive)	> 100 µM (inactive)	23.3 µM (inactive)	> 100 µM (inactive)	38.8 µM (inactive)	> 100 µM (inactive)	29.2 µM (inactive)	11.8 µM (inactive)	> 100 µM (inactive)	41.1 µM (inactive)	> 100 µM (inactive)	94.6 µM (inactive)	52 µM (inactive)				
CCCCCCCC[N+](C)(C)Cc1ccc(C[N+](C)(C)CCCCCCCC)cc1	36.7 µM (inactive)	13.4 µM (inactive)	63.4 µM (inactive)	6.53 µM (inactive)	> 100 µM (inactive)	43.9 µM (inactive)	4.11 µM (inactive)	78.7 µM (inactive)	35.4 µM (inactive)	> 100 µM (inactive)	32.7 µM (inactive)	24.6 µM (inactive)	14.6 µM (inactive)	> 100 µM (inactive)	1.76 µM (inactive)	28.4 µM (inactive)				
COc1cc(/C=C2\[C@H]3c4c(c(OC)c(C)c(OC)c4OC)CC(C(=O)N2Cc2ccccc2)N3C)c(OC)c(C)c1OC	19 µM (inactive)	21.8 µM (inactive)	19.8 µM (inactive)	19.5 µM (inactive)	26.1 µM (inactive)	19.7 µM (inactive)	19.5 µM (inactive)	> 100 µM (inactive)	47.5 µM (inactive)	19.1 µM (inactive)	19.9 µM (inactive)	27.2 µM (inactive)	19.4 µM (inactive)	18.1 µM (inactive)	17.3 µM (inactive)	27.6 µM (inactive)				
CC(=O)OC1COC(Nc2ccc(C(C)=O)cc2)C(OC(C)=O)C1OC(C)=O (stereo unspecified)	> 100 µM (inactive)	> 100 µM (inactive)	> 100 µM (inactive)	> 100 µM (inactive)	> 100 µM (inactive)	> 100 µM (inactive)	> 100 µM (inactive)	> 100 µM (inactive)	> 100 µM (inactive)	> 100 µM (inactive)	> 100 µM (inactive)	> 100 µM (inactive)	> 100 µM (inactive)	> 100 µM (inactive)	> 100 µM (inactive)	> 100 µM (inactive)				
CCN(CC)CCCNc1ccc2nnn3c4ccc(O)cc4c(=O)c1c23	7.55 µM (inactive)	4.86 µM (inactive)	9.51 µM (inactive)	2.33 µM (inactive)	16.1 µM (inactive)	0.385 µM (active)	10.7 µM (inactive)	1.64 µM (inactive)	3.48 µM (inactive)	2.29 µM (inactive)	14.6 µM (inactive)	10.1 µM (inactive)	7.67 µM (inactive)	5.71 µM (inactive)	2.81 µM (inactive)	7.23 µM (inactive)	11.9 µM (inactive)	7.14 µM (inactive)	14 µM (inactive)	10.2 µM (inactive)
CCOC(OC1=CCCC1)C(C)[Se]c1ccccc1 (stereo unspecified)	18.3 µM (inactive)	41 µM (inactive)	31.5 µM (inactive)	16.3 µM (inactive)	34.2 µM (inactive)	22.3 µM (inactive)	> 100 µM (inactive)	32.9 µM (inactive)	21.6 µM (inactive)	15.2 µM (inactive)	51.2 µM (inactive)	> 100 µM (inactive)	35.7 µM (inactive)	19.1 µM (inactive)	18.7 µM (inactive)	55.5 µM (inactive)				
COc1ccc(/C=N/NC(=O)C2=C(N)N(c3ccccc3)C(=C(C#N)C#N)S2)cc1	> 100 µM (inactive)	> 100 µM (inactive)	45 µM (inactive)	63.8 µM (inactive)	> 100 µM (inactive)	> 100 µM (inactive)	53.8 µM (inactive)		> 100 µM (inactive)	> 100 µM (inactive)	39.3 µM (inactive)	70 µM (inactive)	> 100 µM (inactive)	62.5 µM (inactive)	> 100 µM (inactive)	> 100 µM (inactive)	> 100 µM (inactive)	> 100 µM (inactive)	> 100 µM (inactive)	> 100 µM (inactive)
